According to patent US20090004660A1, “METHOD FOR DETECTING NEUROBLASTOMA AND ITS MALIGNANCY AND METHOD FOR SUPPRESSING THE SAME” (priority 2007, published 2009):
Entries after “also recorded” stand apart in the source; their conditions may differ.

Columns and labels:
Format in all cases: cell-based, human
PTGER2 gene = experiment: RT-PCR of PTGER2 gene expression in treated neuroblastoma cell lines lacking PTGER2 expression
Description: Moreover, in order to investigate whether or not the lowered expression of the PTGER2 gene was due to DNA methylation, neuroblastoma cell lines lacking expression of the PTGER2 gene were used and treated with 1 μM or 5 μM of 5-aza-dCyd, a demethylating reagent, for 5 days and/or 100 ng/ml of TSA, a deacetylation inhibitor, for 12 hours. RNA was extracted from each cell line and the PTGER2 gene expression thereof was examined by RT-PCR (FIG. 1C).

[1] = test system: CpG island of the PTGER2 gene; experiment: Methylation status of the PTGER2 CpG island in neuroblastoma cells cultured with a demethylating agent; conditions: neuroblastoma cells cultured in the presence of 5-aza-dC
PTGDR gene = experiment: RT-PCR of PTGDR gene expression in treated neuroblastoma cell lines; conditions: three types of neuroblastoma cell lines, treatment with 5-aza-dCyd
GOTO and SJ-N-CG cells = experiment: WST cell viability assay in neuroblastoma cell lines; conditions: PTGER2 gene-nonexpressing cell lines (GOTO, SJ-N-CG); 0.01 mM, 0.1 mM, 1 mM for 72 hours
Description: Since the PTGER2 protein and G protein are coupled to be associated with increased intracellular cAMP concentration (Narumiya, et al., Physiol Rev, 79, 1193-1226, 1999), the association between intracellular cAMP concentration and proliferation of neuroblastoma was investigated. First, neuroblastoma cell lines lacking expression of the PTGER2 gene (GOTO and SJ-N-CG) and neuroblastoma cell lines expressing the PTGER2 gene (SJ-N-KP and KP-N-SIFA) were cultured in a growth medium with 0 mM, 0.01 mM, 0.1 mM, and 1 mM of 8-Br-cAMP for 72 hours. Then, the viability of these cells was detected by WST assay (FIG. 5).

CC(/C=C/C(=O)NO)=C\[C@@H](C)C(=O)c1ccc(N(C)C)cc1 [TSA, Trichostatin A]
PTGER2 gene expression (PTGER2 gene; 100 ng/ml TSA alone for 12 hours): restored; also recorded: increased level

Nc1ncn([C@H]2C[C@H](O)[C@@H](CO)O2)c(=O)n1 [5-aza-dCyd, 5-azadeoxycytidine]
demethylation of the CpG island of the PTGER2 gene [1]: successfully demethylated | PTGER2 gene expression (PTGER2 gene; 1 μM or 5 μM 5-aza-dCyd alone for 5 days): restored | PTGER2 gene expression (PTGER2 gene; 1 μM or 5 μM 5-aza-dCyd alone for 5 days, listed as 5-aza-dC): successfully restored | PTGDR gene expression (PTGDR gene): restored

Nc1ncnc2c1nc(Br)n2[C@@H]1O[C@@H]2COP(=O)(O)O[C@H]2[C@H]1O [8-Br-cAMP]
proliferation (cell viability by WST assay) (GOTO and SJ-N-CG cells): suppressed
